According to ChEMBL document CHEMBL1153012, “Synthesis and antibacterial activity of novel 5-(4-methyl-1H-1,2,3-triazole) methyl oxazolidinones” (2009):
Values after ≈ are worked out from the molar mass of the structure shown.

What was measured:
Format in all cases: functional
[1] = tested on: Staphylococcus; test: Antibacterial activity against methicillin-sensitive coagulase-negative Staphylococcus by agar dilution method
[2] = tested on: Escherichia coli; test: Antibacterial activity against Escherichia coli ATCC 25922 by agar dilution method
[3] = tested on: Staphylococcus aureus; test: Antibacterial activity against Staphylococcus aureus ATCC 25923 by agar dilution method in presence of human plasma; conditions: ATCC 25923, Plasma
[4] = tested on: Staphylococcus aureus; test: Antibacterial activity against Staphylococcus aureus ATCC 25923 by agar dilution method
[5] = tested on: Streptococcus pneumoniae; test: Antibacterial activity against Streptococcus pneumoniae by agar dilution method
[6] = tested on: Enterococcus; test: Antibacterial activity against vancomycin-resistant Enterococcus by agar dilution method
[7] = tested on: Haemophilus influenzae; test: Antibacterial activity against Haemophilus influenzae ATCC 49247 by agar dilution method
[8] = tested on: Moraxella catarrhalis; test: Antibacterial activity against Moraxella catarrhalis by agar dilution method
[9] = tested on: Enterococcus; test: Antibacterial activity against vancomycin-sensitive Enterococcus by agar dilution method
[10] = tested on: Haemophilus influenzae; test: Antibacterial activity against Haemophilus influenzae isolate 280 by agar dilution method
[11] = tested on: Haemophilus influenzae; test: Antibacterial activity against Haemophilus influenzae isolate 285 by agar dilution method
[12] = tested on: Staphylococcus aureus; test: Antibacterial activity against methicillin-resistant Staphylococcus aureus by agar dilution method
[13] = tested on: Staphylococcus aureus; test: Antibacterial activity against methicillin-susceptible Staphylococcus aureus by agar dilution method
[14] = tested on: Staphylococcus; test: Antibacterial activity against methicillin resistant coagulase-negative Staphylococcus by agar dilution method
[15] = tested on: Haemophilus influenzae; test: Antibacterial activity against Haemophilus influenzae isolate 282 by agar dilution method
[16] = tested on: Haemophilus influenzae; test: Antibacterial activity against Haemophilus influenzae isolate 283 by agar dilution method

Structure (SMILES) | MIC [1] [µg/mL] | MIC [2] [µg/mL] | MIC [3] [µg/mL] | MIC [4] [µg/mL] | MIC [5] [µg/mL] | MIC [6] [µg/mL] | MIC [7] [µg/mL] | MIC [8] [µg/mL] | MIC [9] [µg/mL] | MIC [10] [µg/mL] | MIC [11] [µg/mL] | MIC [12] [µg/mL] | MIC [13] [µg/mL] | MIC [14] [µg/mL] | MIC [15] [µg/mL] | MIC [16] [µg/mL]
Cc1cn(C[C@H]2CN(c3ccc(N4CCOCC4)c(F)c3)C(=O)O2)nn1 | 1 (≈ 2.77 µM) | > 64 | 4 | 2 (≈ 5.53 µM) | 1 (≈ 2.77 µM) | 1 (≈ 2.77 µM) | 64 (≈ 177 µM) | 8 (≈ 22.1 µM) | 1 (≈ 2.77 µM) | 64 (≈ 177 µM) | 64 (≈ 177 µM) | 0.5 (≈ 1.38 µM) | 1 (≈ 2.77 µM) | 1 (≈ 2.77 µM) | 64 (≈ 177 µM) | 64 (≈ 177 µM)
CCC(=O)N1CCN(c2ccc(N3C[C@H](Cn4cc(C)nn4)OC3=O)cc2F)CC1 | 1 (≈ 2.4 µM) | > 64 | 8 | 2 (≈ 4.8 µM) | 1 (≈ 2.4 µM) | 1 (≈ 2.4 µM) | 32 (≈ 76.8 µM) | 16 (≈ 38.4 µM) | 1 (≈ 2.4 µM) | 32 (≈ 76.8 µM) | 32 (≈ 76.8 µM) | 1 (≈ 2.4 µM) | 1 (≈ 2.4 µM) | 1 (≈ 2.4 µM) | 32 (≈ 76.8 µM) | 32 (≈ 76.8 µM)
Cc1cn(C[C@H]2CN(c3ccc(N4CCN(C(=O)Cc5ccccc5)CC4)c(F)c3)C(=O)O2)nn1 | 2 (≈ 4.18 µM) | > 64 | > 64 | 4 (≈ 8.36 µM) | 2 (≈ 4.18 µM) | 1 (≈ 2.09 µM) | > 64 | 16 (≈ 33.4 µM) | 2 (≈ 4.18 µM) | > 64 | > 64 | 2 (≈ 4.18 µM) | 2 (≈ 4.18 µM) | 2 (≈ 4.18 µM) | > 64 | > 64
Cc1cn(C[C@H]2CN(c3ccc(N4CCN(C(=O)CC5CC6CCC5C6)CC4)c(F)c3)C(=O)O2)nn1 (stereo not given in full) | 2 (≈ 4.03 µM) | > 64 | > 64 | 4 (≈ 8.05 µM) | 16 (≈ 32.2 µM) | 2 (≈ 4.03 µM) | > 64 | 64 (≈ 129 µM) | 2 (≈ 4.03 µM) | > 64 | > 64 | 4 (≈ 8.05 µM) | 2 (≈ 4.03 µM) | 2 (≈ 4.03 µM) | > 64 | > 64
Cc1cn(C[C@H]2CN(c3ccc(N4CCNCC4)c(F)c3)C(=O)O2)nn1.O=C(O)C(F)(F)F | 4 | > 64 | 32 | 4 | 2 | 8 | 32 | 16 | 4 | 32 | 32 | 4 | 4 | 4 | 32 | 32
CCCCC(=O)N1CCN(c2ccc(N3C[C@H](Cn4cc(C)nn4)OC3=O)cc2F)CC1 | 1 (≈ 2.25 µM) | > 64 | 32 | 2 (≈ 4.5 µM) | 2 (≈ 4.5 µM) | 1 (≈ 2.25 µM) | 64 (≈ 144 µM) | 16 (≈ 36 µM) | 1 (≈ 2.25 µM) | 64 (≈ 144 µM) | 64 (≈ 144 µM) | 1 (≈ 2.25 µM) | 1 (≈ 2.25 µM) | 1 (≈ 2.25 µM) | 64 (≈ 144 µM) | 64 (≈ 144 µM)
Cc1cn(C[C@H]2CN(c3ccc(N4CCN(C(=O)C(Cl)(Cl)Cl)CC4)c(F)c3)C(=O)O2)nn1 | 1 (≈ 1.98 µM) | > 64 | 16 | 1 (≈ 1.98 µM) | 4 (≈ 7.91 µM) | 1 (≈ 1.98 µM) | > 64 | 32 (≈ 63.3 µM) | 1 (≈ 1.98 µM) | > 64 | > 64 | 1 (≈ 1.98 µM) | 1 (≈ 1.98 µM) | 1 (≈ 1.98 µM) | > 64 | > 64
Cc1cn(C[C@H]2CN(c3ccc(N4CCN(C=O)CC4)c(F)c3)C(=O)O2)nn1 | 1 (≈ 2.57 µM) | > 64 | 8 | 2 (≈ 5.15 µM) | 1 (≈ 2.57 µM) | 1 (≈ 2.57 µM) | 64 (≈ 165 µM) | 8 (≈ 20.6 µM) | 1 (≈ 2.57 µM) | 64 (≈ 165 µM) | 64 (≈ 165 µM) | 1 (≈ 2.57 µM) | 1 (≈ 2.57 µM) | 1 (≈ 2.57 µM) | 64 (≈ 165 µM) | 64 (≈ 165 µM)
CCC(C)C(=O)N1CCN(c2ccc(N3C[C@H](Cn4cc(C)nn4)OC3=O)cc2F)CC1 (stereo not given in full) | 2 (≈ 4.5 µM) | > 64 | 32 | 2 (≈ 4.5 µM) | 4 (≈ 9 µM) | 4 (≈ 9 µM) | > 64 | 32 (≈ 72 µM) | 4 (≈ 9 µM) | > 64 | > 64 | 2 (≈ 4.5 µM) | 2 (≈ 4.5 µM) | 2 (≈ 4.5 µM) | > 64 | > 64
Cc1cn(C[C@H]2CN(c3ccc(N4CCN(C(=O)C(C)C)CC4)c(F)c3)C(=O)O2)nn1 | 0.5 (≈ 1.16 µM) | > 64 | 16 | 1 (≈ 2.32 µM) | 2 (≈ 4.65 µM) | 0.5 (≈ 1.16 µM) | > 64 | 16 (≈ 37.2 µM) | 1 (≈ 2.32 µM) | > 64 | > 64 | 0.5 (≈ 1.16 µM) | 1 (≈ 2.32 µM) | 0.5 (≈ 1.16 µM) | > 64 | > 64
Cc1cn(C[C@H]2CN(c3ccc(N4CCN(C(=O)C(Cl)Cl)CC4)c(F)c3)C(=O)O2)nn1 | 1 (≈ 2.12 µM) | > 64 | 8 | 2 (≈ 4.24 µM) | 1 (≈ 2.12 µM) | 1 (≈ 2.12 µM) | 64 (≈ 136 µM) | 16 (≈ 33.9 µM) | 1 (≈ 2.12 µM) | 32 (≈ 67.9 µM) | 32 (≈ 67.9 µM) | 1 (≈ 2.12 µM) | 1 (≈ 2.12 µM) | 0.5 (≈ 1.06 µM) | 32 (≈ 67.9 µM) | 64 (≈ 136 µM)
CCSC(=O)N1CCN(c2ccc(N3C[C@H](Cn4cc(C)nn4)OC3=O)cc2F)CC1 | 1 (≈ 2.23 µM) | > 64 | 64 | 2 (≈ 4.46 µM) | 2 (≈ 4.46 µM) | 1 (≈ 2.23 µM) | > 64 | 16 (≈ 35.7 µM) | 1 (≈ 2.23 µM) | > 64 | > 64 | 1 (≈ 2.23 µM) | 1 (≈ 2.23 µM) | 1 (≈ 2.23 µM) | > 64 | > 64
CCCCCC(=O)N1CCN(c2ccc(N3C[C@H](Cn4cc(C)nn4)OC3=O)cc2F)CC1 | 2 (≈ 4.36 µM) | > 64 | > 64 | 4 (≈ 8.72 µM) | 8 (≈ 17.4 µM) | 2 (≈ 4.36 µM) | > 64 | > 64 | 2 (≈ 4.36 µM) | > 64 | > 64 | 4 (≈ 8.72 µM) | 2 (≈ 4.36 µM) | 2 (≈ 4.36 µM) | > 64 | > 64
Cc1cn(C[C@H]2CN(c3ccc(N4CCN(C(=O)c5ccccc5)CC4)c(F)c3)C(=O)O2)nn1 | 1 (≈ 2.15 µM) | > 64 | 32 | 2 (≈ 4.31 µM) | 4 (≈ 8.61 µM) | 1 (≈ 2.15 µM) | > 64 | 32 (≈ 68.9 µM) | 1 (≈ 2.15 µM) | > 64 | > 64 | 1 (≈ 2.15 µM) | 1 (≈ 2.15 µM) | 1 (≈ 2.15 µM) | > 64 | > 64
Cc1cn(C[C@H]2CN(c3ccc(N4CCN(C(=O)C(F)(F)F)CC4)c(F)c3)C(=O)O2)nn1 | 1 (≈ 2.19 µM) | 8 (≈ 17.5 µM) | 8 | 4 (≈ 8.76 µM) | 1 (≈ 2.19 µM) | 1 (≈ 2.19 µM) | 64 (≈ 140 µM) | 8 (≈ 17.5 µM) | 1 (≈ 2.19 µM) | 64 (≈ 140 µM) | 64 (≈ 140 µM) | 2 (≈ 4.38 µM) | 1 (≈ 2.19 µM) | 1 (≈ 2.19 µM) | 64 (≈ 140 µM) | 64 (≈ 140 µM)
Cc1cn(C[C@H]2CN(c3ccc(N4CCN(C(=O)C5CCC5)CC4)c(F)c3)C(=O)O2)nn1 | 2 (≈ 4.52 µM) | > 64 | 16 | 4 (≈ 9.04 µM) | 4 (≈ 9.04 µM) | 2 (≈ 4.52 µM) | 32 (≈ 72.3 µM) | 32 (≈ 72.3 µM) | 2 (≈ 4.52 µM) | 32 (≈ 72.3 µM) | 32 (≈ 72.3 µM) | 2 (≈ 4.52 µM) | 2 (≈ 4.52 µM) | 2 (≈ 4.52 µM) | 32 (≈ 72.3 µM) | 32 (≈ 72.3 µM)
O=C1O[C@@H](Cn2ccnn2)CN1c1ccc(N2CCOCC2)c(F)c1 | 0.5 (≈ 1.44 µM) | > 64 | 1 | 1 (≈ 2.88 µM) | 0.5 (≈ 1.44 µM) | 1 (≈ 2.88 µM) | 32 (≈ 92.1 µM) | > 16 | 0.5 (≈ 1.44 µM) | 32 (≈ 92.1 µM) | 32 (≈ 92.1 µM) | 0.5 (≈ 1.44 µM) | 0.5 (≈ 1.44 µM) | 0.5 (≈ 1.44 µM) | 32 (≈ 92.1 µM) | 32 (≈ 92.1 µM)
Cc1cn(C[C@H]2CN(c3ccc(N4CCN(C(=O)C5CC5)CC4)c(F)c3)C(=O)O2)nn1 | 1 (≈ 2.33 µM) | > 64 | 16 | 2 (≈ 4.67 µM) | 2 (≈ 4.67 µM) | 1 (≈ 2.33 µM) | 32 (≈ 74.7 µM) | 16 (≈ 37.3 µM) | 1 (≈ 2.33 µM) | 32 (≈ 74.7 µM) | 32 (≈ 74.7 µM) | 2 (≈ 4.67 µM) | 2 (≈ 4.67 µM) | 1 (≈ 2.33 µM) | 32 (≈ 74.7 µM) | 32 (≈ 74.7 µM)
CC(=O)N1CCN(c2ccc(N3C[C@H](Cn4cc(C)nn4)OC3=O)cc2F)CC1 | 1 (≈ 2.48 µM) | > 64 | 8 | 2 (≈ 4.97 µM) | 1 (≈ 2.48 µM) | 1 (≈ 2.48 µM) | 64 (≈ 159 µM) | 8 (≈ 19.9 µM) | 1 (≈ 2.48 µM) | 64 (≈ 159 µM) | 64 (≈ 159 µM) | 1 (≈ 2.48 µM) | 1 (≈ 2.48 µM) | 1 (≈ 2.48 µM) | 64 (≈ 159 µM) | 64 (≈ 159 µM)
Cc1cn(C[C@H]2CN(c3ccc(N4CCN(C(=O)CC(C)C)CC4)c(F)c3)C(=O)O2)nn1 | 2 (≈ 4.5 µM) | > 64 | 32 | 4 (≈ 9 µM) | 4 (≈ 9 µM) | 4 (≈ 9 µM) | 64 (≈ 144 µM) | 32 (≈ 72 µM) | 2 (≈ 4.5 µM) | > 64 | > 64 | 2 (≈ 4.5 µM) | 2 (≈ 4.5 µM) | 2 (≈ 4.5 µM) | > 64 | > 64
